Experimental data published in ChEMBL document CHEMBL1201862, “PubChem BioAssay data set” (2004).
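Compound exposure: 48 hours, 5 concentrations, 96-well plates. The concentration for 50% growth inhibition is given as GI50.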 Active and inactive are the calls of the source. No stated cut-off is given here; in the data, active = GI50 up to about 1.1 µM and inactive = higher.

Key:
Assay in all cases: inhibition of tumour cell growth, NCI panel, 48 h
[1] = system: HCC 2998
[2] = system: UACC-257
[3] = system: HCT-116
[4] = system: RPMI-8226
[5] = system: ACHN
[6] = system: UACC-62
[7] = system: K562
[8] = system: IGROV-1
[9] = system: HL-60
[10] = system: TK-10
[11] = system: CAKI-1
[12] = system: SK-OV-3
[13] = system: U-251
[14] = system: SK-MEL-5
[15] = system: SF-539
[16] = system: SNB-19
[17] = system: SN12C
[18] = system: SK-MEL-2
[19] = system: MOLT-4

Structure (SMILES) | GI50 [1] | GI50 [2] | GI50 [3] | GI50 [4] | GI50 [5] | GI50 [6] | GI50 [7] | GI50 [8] | GI50 [9] | GI50 [10] | GI50 [11] | GI50 [12] | GI50 [13] | GI50 [14] | GI50 [15] | GI50 [16] | GI50 [17] | GI50 [18] | GI50 [19]
Nc1ccc(C(=O)NN2C(=O)C(Cl)C2c2cc(Br)ccc2O)cc1 (stereo not drawn) | > 100 µM (inactive) | > 100 µM (inactive) | 15.9 µM (inactive) | > 100 µM (inactive) | > 100 µM (inactive) | > 100 µM (inactive) | 70.1 µM (inactive) | 36.5 µM (inactive) | 30.1 µM (inactive) | > 100 µM (inactive) | > 100 µM (inactive) | > 100 µM (inactive) | 32.6 µM (inactive) | > 100 µM (inactive) | > 100 µM (inactive) | > 100 µM (inactive) | > 100 µM (inactive) | – | –
CSCCOC(=O)C(=[N+]=[N-])c1ccc([N+](=O)[O-])cc1 | > 100 µM (inactive) | > 100 µM (inactive) | > 100 µM (inactive) | > 100 µM (inactive) | > 100 µM (inactive) | – | > 100 µM (inactive) | > 100 µM (inactive) | > 100 µM (inactive) | > 100 µM (inactive) | > 100 µM (inactive) | > 100 µM (inactive) | > 100 µM (inactive) | – | > 100 µM (inactive) | > 100 µM (inactive) | > 100 µM (inactive) | > 100 µM (inactive) | > 100 µM (inactive)
N#C/C(=C\c1c(Cl)cccc1Cl)c1ccccc1 | > 39.2 µM (inactive) | 8.65 µM (inactive) | 4.36 µM (inactive) | 5.48 µM (inactive) | 7.59 µM (inactive) | 4.88 µM (inactive) | 3.15 µM (inactive) | 9.29 µM (inactive) | 3.6 µM (inactive) | 15.8 µM (inactive) | 8.47 µM (inactive) | 6.11 µM (inactive) | 4.39 µM (inactive) | 5.51 µM (inactive) | 2.72 µM (inactive) | 3.66 µM (inactive) | 9.82 µM (inactive) | 5.78 µM (inactive) | 4.73 µM (inactive)
[O-][S+](Nc1ccccc1)c1cccc(Cl)c1 (stereo not drawn) | 11.3 µM (inactive) | > 100 µM (inactive) | 45.2 µM (inactive) | 43.5 µM (inactive) | 25.5 µM (inactive) | – | 37.3 µM (inactive) | 46.3 µM (inactive) | 48.6 µM (inactive) | > 100 µM (inactive) | 91 µM (inactive) | – | 53.2 µM (inactive) | 42.8 µM (inactive) | 27.5 µM (inactive) | > 100 µM (inactive) | > 100 µM (inactive) | – | 34.7 µM (inactive)
CCCCC(N)CSSCC(N)CCCC (stereo not drawn) | 19 µM (inactive) | 20.5 µM (inactive) | 17.8 µM (inactive) | 25.1 µM (inactive) | 34.4 µM (inactive) | 21.1 µM (inactive) | 19.4 µM (inactive) | 50.8 µM (inactive) | 16.4 µM (inactive) | > 100 µM (inactive) | – | 57.1 µM (inactive) | – | 22.9 µM (inactive) | 23.7 µM (inactive) | 58.5 µM (inactive) | 19.5 µM (inactive) | 17.2 µM (inactive) | 19.2 µM (inactive)
O=C(CN1CCOCC1)Nc1nc(-c2ccc(Cl)cc2)cs1 | 26.8 µM (inactive) | – | – | 13.6 µM (inactive) | 25.1 µM (inactive) | 20 µM (inactive) | 19.4 µM (inactive) | 45.2 µM (inactive) | 17.3 µM (inactive) | 34.4 µM (inactive) | 34.4 µM (inactive) | 65.3 µM (inactive) | 24.2 µM (inactive) | – | 44.4 µM (inactive) | 39.1 µM (inactive) | 34.3 µM (inactive) | 26.5 µM (inactive) | 13.8 µM (inactive)
COc1cc2c(c(OC)c1OC)[C@@H]1CCCCC[C@@H]1CCC2=O | > 100 µM (inactive) | 59.7 µM (inactive) | 57.1 µM (inactive) | 31.9 µM (inactive) | > 100 µM (inactive) | 78.9 µM (inactive) | 28.9 µM (inactive) | > 100 µM (inactive) | 22.9 µM (inactive) | > 100 µM (inactive) | > 100 µM (inactive) | > 100 µM (inactive) | > 92.5 µM (inactive) | 57.5 µM (inactive) | > 100 µM (inactive) | > 100 µM (inactive) | > 100 µM (inactive) | > 92.9 µM (inactive) | 24 µM (inactive)
O=S(=O)(c1ccccc1)n1cc(C[P+](c2ccccc2)(c2ccccc2)c2ccccc2)c2ccccc21 | 3.36 µM (inactive) | – | 3.81 µM (inactive) | 0.6 µM (active) | 15.3 µM (inactive) | 5.12 µM (inactive) | 2.65 µM (inactive) | 2.08 µM (inactive) | 2.04 µM (inactive) | 3.69 µM (inactive) | 13.9 µM (inactive) | 2.5 µM (inactive) | 3.79 µM (inactive) | 1.67 µM (inactive) | 4.59 µM (inactive) | 2.61 µM (inactive) | 5.69 µM (inactive) | 2.3 µM (inactive) | 4.91 µM (inactive)
CC(=O)c1ccccc1NC(=O)C(=O)C(C(=O)c1ccc2ccccc2c1)C1OC(=O)c2ccccc21 (stereo not drawn) | 4.72 µM (inactive) | 13.8 µM (inactive) | 13.1 µM (inactive) | 6.11 µM (inactive) | 31.8 µM (inactive) | 13 µM (inactive) | 9.04 µM (inactive) | 16.1 µM (inactive) | 9.91 µM (inactive) | 34 µM (inactive) | 10.6 µM (inactive) | 29.2 µM (inactive) | 6.75 µM (inactive) | 11.4 µM (inactive) | 4.72 µM (inactive) | 4.73 µM (inactive) | 13.7 µM (inactive) | 10.2 µM (inactive) | 3.67 µM (inactive)
CCC1(O)CC(OC2CC(N(C)C)C(OC3CC(O)C(OC4CCC(=O)C(C)O4)C(C)O3)C(C)O2)c2c(O)c3c(c(O)c2C1C(=O)OC)C(=O)c1cccc(O)c1C3=O (stereo not drawn) | 0.0172 µM (active) | 0.0059 µM (active) | 0.000396 µM (active) | 0.00181 µM (active) | 0.00134 µM (active) | 0.0101 µM (active) | 0.000274 µM (active) | 0.00178 µM (active) | 0.00586 µM (active) | 0.015 µM (active) | 0.000267 µM (active) | 0.00565 µM (active) | 0.0028 µM (active) | 0.00405 µM (active) | 0.0101 µM (active) | 0.00457 µM (active) | 0.00966 µM (active) | 0.0103 µM (active) | 0.00154 µM (active)
CCCCCCCCCCCOc1ccc(C(=O)C(=O)c2ccc(OCCCCCCCCCCC)c(OCCCCCCCCCCC)c2)cc1OCCCCCCCCCCC | > 100 µM (inactive) | > 100 µM (inactive) | > 100 µM (inactive) | > 100 µM (inactive) | > 100 µM (inactive) | > 100 µM (inactive) | > 100 µM (inactive) | > 100 µM (inactive) | > 100 µM (inactive) | > 100 µM (inactive) | > 100 µM (inactive) | > 100 µM (inactive) | > 100 µM (inactive) | > 100 µM (inactive) | > 100 µM (inactive) | > 100 µM (inactive) | > 100 µM (inactive) | > 100 µM (inactive) | 80.7 µM (inactive)
COc1cc(C(C)(C)C)c(OC(=O)/C=C/C(=O)O/C=C/[N+](=O)[O-])c(C(C)(C)C)c1 | > 100 µM (inactive) | 47.6 µM (inactive) | 46.5 µM (inactive) | > 100 µM (inactive) | 30.5 µM (inactive) | 33.2 µM (inactive) | > 100 µM (inactive) | 69.8 µM (inactive) | 0.324 µM (active) | 85.3 µM (inactive) | 23.5 µM (inactive) | > 100 µM (inactive) | 47.1 µM (inactive) | 35.3 µM (inactive) | 34.4 µM (inactive) | – | 41.3 µM (inactive) | – | > 100 µM (inactive)
CC(C)C(Nc1c2ccccc2[n+](C)c2ccccc12)C(=O)O (stereo not drawn) | > 100 µM (inactive) | > 100 µM (inactive) | > 100 µM (inactive) | > 100 µM (inactive) | > 100 µM (inactive) | > 100 µM (inactive) | > 100 µM (inactive) | > 100 µM (inactive) | 99.5 µM (inactive) | > 100 µM (inactive) | > 100 µM (inactive) | > 100 µM (inactive) | > 100 µM (inactive) | > 100 µM (inactive) | > 100 µM (inactive) | > 100 µM (inactive) | > 100 µM (inactive) | > 100 µM (inactive) | > 100 µM (inactive)
CCCC[C@H](CCc1ccccc1)N(C(=O)OC)N1CCC[C@H]1COC | 14.6 µM (inactive) | 18 µM (inactive) | 13.6 µM (inactive) | 31.6 µM (inactive) | 16.8 µM (inactive) | 16 µM (inactive) | 21.7 µM (inactive) | 20.9 µM (inactive) | 46.7 µM (inactive) | 26.4 µM (inactive) | 29.9 µM (inactive) | 24.1 µM (inactive) | 15.4 µM (inactive) | 18.3 µM (inactive) | 18 µM (inactive) | 16.4 µM (inactive) | 17.9 µM (inactive) | 18.5 µM (inactive) | 24.2 µM (inactive)
NC(=S)N1N=C2c3ccccc3CC[C@H]2[C@@H]1c1cccs1 | 37.4 µM (inactive) | 28 µM (inactive) | 28.8 µM (inactive) | 37.9 µM (inactive) | 49.2 µM (inactive) | 33.7 µM (inactive) | 7.69 µM (inactive) | 37.2 µM (inactive) | 16.1 µM (inactive) | 64.6 µM (inactive) | – | 37.7 µM (inactive) | 35.3 µM (inactive) | – | 43.2 µM (inactive) | 75.7 µM (inactive) | 39.3 µM (inactive) | 22.1 µM (inactive) | 21.5 µM (inactive)
